Test results published in patent US7531312B2, “Simplified biological evaluation method of natural and artificial chemicals by using DNA injury index and apparatus therefor” (TAS Project Co., Ltd., priority 2000, dated 2009).

Columns and labels:
2′-deoxyguanosine (dG) [1] = assay: 8OHdG produced from dG with test substance and coexisting bisphenol A, standing or UV (Example 9); assay type: biochemical; settings: for 8OHdG concentration, 90 Minutes' standing: ultrapure water 0.21; for 8OHdG concentration, 90 Minutes' UV irradiation: ultrapure water 0.64
Experimental: 170 μl portions of ultrapure water and predetermined concentrations of vitamin C (VC), vitamin E (VE), and glucose (Glu) as test substance were added to each well of two […] plastic plates and, as additional solution, 20 μl of ultrapure water or predetermined concentration of bisphenol A (BPA) were injected into each well.

2′-deoxyguanosine (dG) [2] = assay: 8OHdG produced from added dG, standing at room temperature or UV irradiation (Examples 1-7); settings: for 8OHdG concentration, 90 Minutes' UV irradiation / 8OHdG concentration, 90 Minutes' standing: Table 1; for 8OHdG concentration, 90 Minutes' UV irradiation: ultrapure water 0.529; for 8OHdG concentration, 90 Minutes' standing: ultrapure water 0.267;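 for all read-outs here: Cell-free test: dG in test solution, held at room temperature or exposed to 254 nm UV, then 8OHdG quantified by HPLC with electrochemical detection, compared against dG in ultrapure water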
Experimental: Separately, the amount of 8OHdG after an ultrapure water solution of dG is left to stand under the same conditions as above for a predetermined time is measured (this value is defined as B). If A is greater than B, the test substance is evaluated to have oxidation induction ability and conversely if A is smaller than B, the test substance is evaluated to have antioxidant ability. In either case, it is judged that the greater the difference is, the greater degree of oxidation induction ability or antioxidant capability the test substance has.
Then, 20 μl of 200 μg/ml dG (dissolved in ultrapure water) was added to each well and one of the plates was left to stand as it was at room temperature for 90 minutes and the other plate was irradiated with UV light (254 nm, 860 μW/cm^2) for 90 minutes in a UV light irradiation box. […] Subsequently, nucleosides in the both were quantified by use of the UV light absorption analyzer connected to the HPLC and the electrochemical detector.
Solutions of predetermined concentrations of vitamin C (VC), vitamin E (VE), catechin (Cate) and tannic acid (Tan) were prepared and 180 μl portions were injected into each well of two 99-well plastic plates. Then, 20 μl of 200 μg/ml dG (dissolved in ultrapure water) was added to each well and one of the plates was left to stand as it was at room temperature for 90 minutes and the other plate was irradiated with UV light (254 nm, 860 μW/cm^2) for 90 minutes in a UV light irradiation box.
Then, 20 μl of 200 μg/ml dG (dissolved in ultrapure water) was added to each well and one of the plates was left to stand as it was at room temperature for 90 minutes and another plate was left to stand similarly at room temperature for 24 hours. The remaining three plates were irradiated with UV light (254 nm, 860 μW/cm^2) for 60 minutes, 90 minutes and 120 minutes, respectively, in a UV light irradiation box.
Solutions of predetermined concentrations of glucose (Glu), raffinose (Raffi) and sucrose (Suc) were prepared and 180 μl portions thereof were injected into each well of four 99-well plastic plates. Then, 20 μl of 200 μg/ml dG (dissolved in ultrapure water) was added to each well and one of the plates was left to stand as it was at room temperature for 90 minutes. The remaining three plates were irradiated with UV light (254 nm, 860 μW/cm^2) for 60 minutes, 90 minutes and 120 minutes, respectively, in a UV light irradiation box.
Then, 20 μl of 200 μg/ml dG (dissolved in ultrapure water) was added to each well and one of the plates was left to stand as it was at room temperature for 90 minutes and the other plate was irradiated with UV light (254 nm, 860 μW/cm^2) for 90 minutes in a UV light irradiation box.
Solutions of various concentrations of uric acid (dissolving fluid: distilled water+0.025% FBS) were prepared and 180 μl portions thereof were injected into each well of two 99-well plastic plates. Then, 20 μl of 200 μg/ml dG (dissolved in ultrapure water) was added to each well and one of the plates was left to stand as it was at room temperature for 90 minutes and the other plate was irradiated with UV light (254 nm, 860 μW/cm^2) for 90 minutes in a UV light irradiation box.

[3] = common in every country; cited from earlier work
[4] = BPA 0.5 ppm added to ultrapure water
[5] = BPA 5 ppm added to ultrapure water
[6] = BPA 50 ppm added to ultrapure water

Question: Which results are given for `CC(C)(c1ccc(O)cc1)c1ccc(O)cc1` [BPA, bisphenol A]?
Answer: 8OHdG concentration, 90 Minutes' standing (2′-deoxyguanosine (dG) [1]; [4]): 0.19 ng/mL; 8OHdG concentration, 90 Minutes' UV irradiation (2′-deoxyguanosine (dG) [1]; [4]): 2.09 ng/mL; 8OHdG concentration, 90 Minutes' standing (2′-deoxyguanosine (dG) [1]; [5]): 0.31 ng/mL; 8OHdG concentration, 90 Minutes' UV irradiation (2′-deoxyguanosine (dG) [1]; [5]): 6.19 ng/mL; 8OHdG concentration, 90 Minutes' standing (2′-deoxyguanosine (dG) [1]; [6]): 0.22 ng/mL; 8OHdG concentration, 90 Minutes' UV irradiation (2′-deoxyguanosine (dG) [1]; [6]): 11.58 ng/mL; effect on 8OHdG with BPA and UV light irradiation (2′-deoxyguanosine (dG) [1]; Example 9): increases depending on concentration; 8OHdG concentration, 90 Minutes' UV irradiation (2′-deoxyguanosine (dG) [2]; 0.0005 ppm): 0.689 ng/mL; 8OHdG concentration, 90 Minutes' standing (2′-deoxyguanosine (dG) [2]; 0.005 ppm): 0.315 ng/mL; 8OHdG concentration, 90 Minutes' UV irradiation (2′-deoxyguanosine (dG) [2]; 0.005 ppm): 0.794 ng/mL; 8OHdG concentration, 90 Minutes' UV irradiation (2′-deoxyguanosine (dG) [2]; 0.05 ppm): 0.614 ng/mL; 8OHdG concentration, 90 Minutes' standing (2′-deoxyguanosine (dG) [2]; 0.5 ppm): 0.231 ng/mL; 8OHdG concentration, 90 Minutes' UV irradiation (2′-deoxyguanosine (dG) [2]; 0.5 ppm): 1.736 ng/mL; 8OHdG concentration, 90 Minutes' standing (2′-deoxyguanosine (dG) [2]; 5 ppm): 0.192 ng/mL; 8OHdG concentration, 90 Minutes' UV irradiation (2′-deoxyguanosine (dG) [2]; 5 ppm): 7.142 ng/mL; concentration at which oxidation injury activity due to UV light is elevated (harmfulness increased) (2′-deoxyguanosine (dG) [2]; Example 1, 90 minutes UV): ≥ 0.5 ppm; Acceptable uptake amount [3]: 0.05 mg/kg/day
